Experimental data reported in ChEMBL document CHEMBL1125393, “5-(Aminomethyl)-3-aryldihydrofuran-2(3H)-ones, a new class of monoamine oxidase-B inactivators” (J Med Chem, 1992).

Key:
[1] = biological target: T1, Amine oxidase [flavin-containing] B (Bos taurus, UniProt P56560); test: Inhibitory constant against beef liver mitochondrial monoamine oxidase-B (MAO-B)
T1 sequence (P56560 whole entry): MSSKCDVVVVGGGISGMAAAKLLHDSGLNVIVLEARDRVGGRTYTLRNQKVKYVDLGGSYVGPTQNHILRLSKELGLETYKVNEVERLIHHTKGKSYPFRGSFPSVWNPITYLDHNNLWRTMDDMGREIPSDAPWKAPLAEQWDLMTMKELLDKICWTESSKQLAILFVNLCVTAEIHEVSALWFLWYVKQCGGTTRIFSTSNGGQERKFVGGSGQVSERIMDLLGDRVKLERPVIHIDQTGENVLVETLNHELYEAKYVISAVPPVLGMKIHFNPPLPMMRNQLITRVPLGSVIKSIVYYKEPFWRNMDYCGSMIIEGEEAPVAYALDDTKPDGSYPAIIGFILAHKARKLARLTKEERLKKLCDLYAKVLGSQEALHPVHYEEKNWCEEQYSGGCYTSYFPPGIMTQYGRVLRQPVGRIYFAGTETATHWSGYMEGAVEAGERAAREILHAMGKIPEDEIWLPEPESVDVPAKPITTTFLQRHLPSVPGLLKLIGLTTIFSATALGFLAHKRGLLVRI

[2] = biological target: T1, Amine oxidase [flavin-containing] B; test: Inactivation constant against beef liver mitochondrial monoamine oxidase-B (MAO-B); details: cattle

| SMILES | Ki [1] | kinact [2] |
| --- | --- | --- |
| COc1ccc(N2CC(CN)OC2=O)cc1 (stereo not given) | 12.5 mM | 0.0133 s⁻¹ |
| COc1ccc([C@H]2C[C@@H](CN)OC2=O)cc1 | 6.67 mM | 0.074 s⁻¹ |
| COc1ccc([C@@H]2C[C@@H](CN)OC2=O)cc1 | 18.2 mM | 0.383 s⁻¹ |

Stronger by Ki [1], values ahead:

| Ki [1] | kinact [2] | SMILES |
| --- | --- | --- |
| 5.1 mM | 0.0357 s⁻¹ | NC[C@@H]1C[C@@H](c2ccccc2)C(=O)O1 |
| 4.2 mM | 0.0428 s⁻¹ | NC[C@@H]1C[C@H](c2ccccc2)C(=O)O1 |
